Earlier results as cited in patent US4431807A, “4-Methyl-5-(unsubstituted and substituted phenoxy)-6-methoxy-8-(aminoalkylamino)quinolines” (priority 1981, dated 1984).
Read-outs that look alike come from different tables or passages of the source.

Test system: Plasmodium cynomolgi
Settings: cited from earlier work

In the case of `COc1cc(NC(C)CCCN)c2ncccc2c1` (stereo not shown) [Primaquine Diphosphate, 8-((4-amino-1-methylbutyl)amino)-6-methoxy-quinoline, reference compound], the Radical curative activity (0.316 mg/kg, prior art comparison) is given as “inactive”, the “Radical curative activity, cures” value (1.0 mg/kg (× 7), Table I) is given as 1/2 and the “% cures (radical curative)” value (1.0 mg/kg) is given as 50%. The “% cures (radical curative)” value (1.3 mg/kg) was 100%.
